According to patent publication US20250276089A1, “CO-DELIVERY OF INHIBITORY NUCLEIC ACIDS AND GENOME EDITORS FOR TUMOR THERAPY” (The Board of Regents of The University of Texas System, priority 2022, published 2025):

Test system: tumor cells
Assay: mRNA delivery efficacy in tumor cells treated with an FAK inhibitor plus siCtrl+mRNA-LNPs
Type: cell-based
Conditions: co-administered with siCtrl+mRNA-LNPs

SMILES: CS(=O)(=O)c1cccc(CNc2nc(Nc3ccc4c(c3)CCC(=O)N4)ncc2C(F)(F)F)c1 [FAK inhibitor, PF-573228]
- mRNA delivery efficacy and protein expression: enhanced
